The record followed here is EP0075436B1, “Substituted 4,5-dihydro-6-(substituted)-phenyl-3(2H)-pyridazinones and 6-(substituted)phenyl-3(2H)-pyridazinones” (WARNER-LAMBERT COMPANY, priority 1981, dated 1983).

The subject of assay [1] is pentobarbital-anesthetized dog. The assay can be described thus: Test for in vivo myocardial inotropic activity in anesthetized dog. The note with it: intravenous; for % Change Blood Pressure: aortic blood pressure; for % Change Myocardial Contractility: dP/dt of left ventricular blood pressure. The protocol: Test for in vivo myocardial inotropic activity in anesthetized dog This screen consists of determining the effects of increasing intravenous doses of compound on myocardial contractility (dP/dt mad of left ventricular blood pressure), heart rate and aortic blood pressure of the pentobarbital-anesthetized dog. Adult mongrel dogs of either sex are anesthetized with pentobarbital, 35 mg/kg, IV, and are subsequently maintained under anesthesia with a continuous infusion of pentabarbital, 3.5 mg/kg/hour. The trachea is intubated but the animals are permitted to breathe spontaneously. A cannula is inserted into the femoral vein for administrating test agents. A Millar catheter tip pressure transducer or a fluid filled catheter is inserted into the ascending aorta via the femoral artery for measuring aortic blood pressure. A Millar catheter tip pressure transducer is passed into the left ventricle via the left carotid artery for measuring left ventricular blood pressure. Needle electrodes are.placed subcutaneously for recording a lead II electrocardiogram (ECG). Left ventricular and aortic blood pressures are recorded on a strip chart recorder. Heart rate, using a . biotachometer triggered from the R wave of the ECG, and the first derivative of left ventricular blood pressure (dP/dt), obtained with a differentiator amplifier coupled to the corresponding pressure amplifier, are also recorded. A period of at least 30 minutes is utilized to obtain control data prior to administration of test compound. Depending on solubility, the compounds are dissolved in 0.9% saline solution or in dilute HCI or NaOH (0.1 or 1.0 N) and are diluted to volume with normal saline. Ethanol or dimethylacetamide can be used as solvents if adequate dilutions can be made. Appropriate vehicle controls are administered when needed. Each dose of the test compound is administered in volume of 0.1 ml/kg over a period of one minute.

The test system of another assay is conscious rat. In words: Direct monitoring of aortic blood pressure and heart rate from conscious rats. The assay is classed as in vivo. The note with it: doses 1, 3, 10, and 30 mg/kg. The text has this:
A method for the direct monitoring of aortic blood pressure and heart rate from conscious rats
The continuous monitoring of pulsatile blood pressure from unrestrained conscious rats surgically equipped with polyethylene cannulas was accomplished by means of a computer assisted data capture scheme (CADCS). The basic elements of the methodology are the cannulation procedure and the CADCS. Method
Cannulation Procedure: Rats were anesthetized with Telazol (1:1 tiletamine HCI and zolazepam HCI; WU PD, Ann Arbor, MI) 20-40 mg/kg IM and the descending aorta exposed via a midline incision. Cannulus fabricated from polyethylene tubing (Clay Adams, Parsippany, NJ) were inserted into the aorta via an undersized puncture hole below the renal arteries. The puncture hole was made by a 23 G disposable needle with a section of the aorta clamped off above and below the puncture site. The cannulas, consisting of a PE100 (0.86 mm ID) body and a PE50 (0.58 mm ID) tip, were attached to a trocar, inserted through the psoas muscle, and passed subcutaneously along the midline of the back and externalized between the ears. The cannulas were anchored to the psoas muscle and between the scapulae (3-0 green braided suture; Deknatel, Queens Village, NY). The midline incision was closed in two steps (muscle first, skin second) using continuous over-and-over sutures (4-0 chronic; Ethicon, Somerville, NJ). Each rat was then given penicillin 30,000 units subcutaneously (Penicillin G Procaine Sterile Suspension; Parke-Davis, Detroit, MI).
The rats were fitted with a harness-spring-swivel assembly designed to protect the cannula and to provide the rat relative freedom of movement. The harnesses were fabricated from nylon hook and loop tape (Velcro, Manchester, NH) cemented to a metal plate to which spring wires (18-8 stainless steel, Paragon Spring; Chicago, IL) were attached to brass swivels (BRS/LVE, Bellville: MD). Each polyethylene cannula was channeled through a spring and connected through a swivel to a pressure transducer (Model P23Gb; Statham Instruments; Hato Rey, Puerto Rico) and an infusion pump (Sage model 234-7; Orion Research, Cambridge, MA) by means of PE100 tubing. While on test, each rat received a continuous slow infusion of heparinized saline solution […] or 40 units of heparin per 24-hour period) to prevent clot formation. Additional "flushes" of the cannula with heparinized saline were carriedd out when the aortic pulse pressure (systolic minus diastolic) was less than 25 mm Hg.
CADCS: The pulsatile blood pressure and heart rate of each of 32 rats was monitored every minute by means of two in-laboratory microcomputers communicating directly with a data concentrator computer. The data were first stored on the data concentrator disk and then transferred to a magnetic tape for analysis and report generation by the main research computer (Varian V-74 or IBM). The overall scheme involved modulating the primary signal from the pressure transducer, generating the primary data set of the one- minute values for systolic, diastolic, and mean blood pressures and heart rate by the in-lab microcomputer and the storage, analysis, and report generation by the main research computer.
The transducers were connected to analog signal conditioning modules. The modules provided a regulated excitation voltage for the transducers, amplification as required to interface the microprocessors and an active low pass filter to compensate for the pressure wave form distortion produced by the flexible, fluid filled, narrow lumened cannula. The distortion was 22-26 Hz and thus provided a reliable estimate of both systolic and diastolic blood pressure.
The microcomputers (one for each of two groups of 16 rats) were connected to the input components through the module interface units, an analog-to-digital converter for the pressure wave form signal and the digital inputs for the dose and event marker switches. […]

The structures appear in SMILES notation.

`O=C1CCC(c2ccc(-n3cnc4c3CCCC4)cc2)=NN1` [Example 8, 4,5-Dihydro-6-[4-(4,5,6,7-tetrahydro-1H-benzimidazol-1-yl)phenyl]-3(2H)-pyridazinone]: the “% Change Heart Rate” value is given as −3.0% in assay [1] (dose 0.01 mg/kg); −15.0% in assay [1] (dose 0.03 mg/kg); −17.0% in assay [1] (dose 0.10 mg/kg); −18.0% in assay [1] (dose 0.31 mg/kg); −7.0% in assay [1] (dose 1.0 mg/kg). For the same molecule, the “% Change Blood Pressure” value is on record as −2.5% in assay [1] (dose 0.01 mg/kg); −7.0% in assay [1] (dose 0.03 mg/kg); −11.0% in assay [1] (dose 0.10 mg/kg); −17.0% in assay [1] (dose 0.31 mg/kg); −27.0% in assay [1] (dose 1.0 mg/kg). Also, the “% Change Myocardial Contractility” value in assay [1] (dose 0.01 mg/kg) was found to be 10%; in assay [1] (dose 0.03 mg/kg) it was 21%; in assay [1] (dose 0.10 mg/kg) it was 51%; in assay [1] (dose 0.31 mg/kg), 95%; in assay [1] (dose 1.0 mg/kg), 127%. Moreover, in the assay with conscious rat, the aortic blood pressure entry is “significant reduction”.

Turning to `O=c1ccc(-c2ccc(-n3cnc4c3CCCC4)cc2)n[nH]1` [Example 15, 6-[4-(4,5,6,7-Tetrahydro-1H benzimidazol-1-yl)phenyl]-3(2H)-pyridazinone], in the assay on conscious rat, the aortic blood pressure entry was “significant reduction”.

As for `O=C1CCC(c2ccc(-n3cnnc3)cc2)=NN1` [Example 10], the aortic blood pressure entry in the assay with conscious rat was “significant reduction”.

In the case of `O=C1CCC(c2cccc(-n3ccnc3)c2)=NN1` [Example 6, 4,5-Dihydro-6-[3-(1-imidazol-1-yl)phenyl]-3(2H)-pyridazinone], the “% Change Heart Rate” value in assay [1] (dose 0.01 mg/kg) is reported as −2.0%; in assay [1] (dose 0.10 mg/kg), −1.0%; in assay [1] (dose 0.30 mg/kg), 2.0%; in assay [1] (dose 1.0 mg/kg), 11.0%. The “% Change Blood Pressure” value is on record as 1.0% in assay [1] (dose 0.01 mg/kg), −1.0% in assay [1] (dose 0.10 mg/kg), −8.0% in assay [1] (dose 0.30 mg/kg) and −20.0% in assay [1] (dose 1.0 mg/kg). For the same molecule, the “% Change Myocardial Contractility” value in assay [1] (dose 0.01 mg/kg) turned out to be 6%; in assay [1] (dose 0.10 mg/kg), 36%; in assay [1] (dose 0.30 mg/kg), 71%; in assay [1] (dose 1.0 mg/kg), 114%. Also, the aortic blood pressure result in the assay with conscious rat is listed as “significant reduction”.

In the case of `O=C1CCC(c2ccc(-n3ccnc3)cc2)=NN1` [Example 3a, 4,5-Dihydro-6-[4-(1H imidazol-1-yl)phenyl]-3(2H)-pyridazinone], the “% Change Heart Rate” value in assay [1] (dose 0.01 mg/kg) is −4.0%; in assay [1] (dose 0.03 mg/kg), −4.0%; in assay [1] (dose 0.10 mg/kg) it was −1.0%; in assay [1] (dose 0.31 mg/kg), 2.0%. The “% Change Blood Pressure” value in assay [1] (dose 0.01 mg/kg) is −2.0%; in assay [1] (dose 0.03 mg/kg), −6.0%; in assay [1] (dose 0.10 mg/kg), −10.5%; in assay [1] (dose 0.31 mg/kg) it was −21.5%. The “% Change Myocardial Contractility” value amounted to 9% in assay [1] (dose 0.01 mg/kg), 32% in assay [1] (dose 0.03 mg/kg), 57% in assay [1] (dose 0.10 mg/kg) and 87% in assay [1] (dose 0.31 mg/kg).

For the molecule `O=C1CCC(c2ccc(OCCn3ccnc3)cc2)=NN1` [Example 12, 4,5-Dihydro-6-[4-[2-(1H-imidazol-1-yl)ethoxy]phenyl]-3(2H)-pyridazinone], the aortic blood pressure entry with conscious rat is “significant reduction”.

With `O=C1CCC(c2ccc(-n3cccc3)cc2)=NN1` [Example 11, 4,5-Dihydro-6-[4-(H-pyrrol-1-yl)phenyl]-3(2H)-pyridazinone], the aortic blood pressure entry in the assay with conscious rat was “significant reduction”.

Regarding `O=c1ccc(-c2cccc(-n3ccnc3)c2)n[nH]1` [Example 14, 6-[3-(1H-Imidazol-1-yl)phenyl]-3(2H)-pyridazinone], in the assay on conscious rat, the aortic blood pressure entry is “significant reduction”.

Turning to `O=c1ccc(-c2ccc(-n3ccnc3)cc2)n[nH]1` [Example 13a, 6-[4-(1H-Imidazol-1-yl)phenyl]-3(2H)-pyridazinone], the “% Change Heart Rate” value is listed as 0.0% in assay [1] (dose 0.01 mg/kg), 6.0% in assay [1] (dose 0.03 mg/kg), 16.0% in assay [1] (dose 0.10 mg/kg) and 32.0% in assay [1] (dose 0.31 mg/kg). The “% Change Blood Pressure” value in assay [1] (dose 0.01 mg/kg) is recorded as 0.0%; in assay [1] (dose 0.03 mg/kg), −1.5%; in assay [1] (dose 0.10 mg/kg), −6.0%; in assay [1] (dose 0.31 mg/kg), −9.0%. Further, the “% Change Myocardial Contractility” value came to 3% in assay [1] (dose 0.01 mg/kg), 15% in assay [1] (dose 0.03 mg/kg), 40% in assay [1] (dose 0.10 mg/kg) and 78% in assay [1] (dose 0.31 mg/kg).

Regarding `O=c1ccc(-c2ccc(OCCn3ccnc3)cc2)n[nH]1` [Example 16, 6-[4-[2-(1H Imidazol-1-yl)ethoxy]phenyl]-3(2H)-pyridazinone], in the assay with conscious rat, the aortic blood pressure entry was “significant reduction”.
